System: M1-type and M2-type inflammatory markers (mRNA)
Experiment: Real time rt-PCR of inflammatory markers in TBI mouse cortex
Type: in vivo, mice
Conditions: for expression of inflammatory markers / pro-inflammatory mediators (overall): CCI induced TBI in mice
Description: Controlled cortical impact (CCI) induced TBI was performed in male C57BL6/J mice (20-25 g). Briefly, after a 10-mm midline incision was made over the skull, the skin and fascia were retracted, and a 4-mm craniotomy was made on the central aspect of the left parietal bone of mice under surgical anesthesia (2-3% isoflurane evaporated in a gas mixture containing 70% N20 and 30% 02). Moderate injury was induced in the exposed brain by a custom microprocessor-controlled and compressed air driven pneumatic impactor of 3.5 mm diameter tip with the impact velocity of 6 m/s and a deformation depth of 2 mm.
N-Acetyl-L-Leucine (“NAL” or “NALL”) was dissolved in ethanol to prepare a 50 mg/ml solution which was then diluted in water to give a 10 mg/ml solution. About 0.25 ml of the NAL solution (10 mg/ml) was orally administered in mice at a […] (2.5 mg NAL/25 g mouse) via oral gavage each day after CCI induced TBI for 4 days. Mice were also fed with NAL at 0.5 mg/kg chow powder chow mixed with diet gel for up to 7 days after injury.
The expression level of M1-type pro-inflammatory markers Nos2, Nlrp3, IL-1β, TNF, IFNβ and Nox2 in the perilesional area in TBI mouse cortices were determined by real time rt-PCR. The expression level of M2-type markers Socs3, YM-1, IL4ra and Arg-1 in cortical tissue was also determined.
Total RNA isolated from the ipsilateral cortex using miRNeasy Mini Kit (Qiagen, Cat No. 217004) was converted into cDNA using High Capacity RNA to cDNA kit (Applied Biosystem, Cat. No. 4387406) as per manufacturer's instruction. cDNA TaqMan® Universal Master Mix II (Applied Biosystems, Cat. No. 4440040) was used to perform quantitative real-time PCR amplification as described previously using 20× TaqMan® Gene Expression Assay (Applied Biosystems) for following mouse genes were used: Gapdh (Mm99999915_g1), NLRP3 (Mm00840904_m1), NOX2 (Mm01287743_m1), iNOS (Mm00440502_m1), TNFα (Mm00443258_m1), IFnβ1 (Mm00439552_s1), IL-10 (Mm01288386_m1), IL1b (Mm00434228_m1), Arg1 (Mm00475988_m1), SOCS3 (Mm00545913_s1), YM-1 (Mm00657889_mH) and IL-4ra (Mm01275139_m1) (Applied Biosystems). Reactions were amplified and quantified using a 7900HT Fast Real-Time PCR System and corresponding software (Applied Biosystems). Relative gene expression normalized to Gapdh was calculated based on the comparative Ct method.

[1] = NAL fed mouse cortices as compared to sham mice
[2] = cortices of NAL fed vs vehicle fed TBI mice

CC(=O)N[C@@H](CC(C)C)C(=O)O [ALL, acetyl-L-leucine]
expression of inflammatory markers / pro-inflammatory mediators (overall): modulates the expression of pro-inflammatory mediators
expression of inflammatory markers / pro-inflammatory mediators (overall) (listed as NAL): reduces expression of several inflammatory markers
levels of IL-4ra [1]: remained unaltered
levels of Socs3 [1]: remained unaltered
levels of YM-1 [1]: remained unaltered
mRNA level of IFNβ [2]: decrease
mRNA level of Nox2 [2]: decrease
levels of Arg-1 (injured mouse cortex, NAL vs vehicle fed TBI mice): lowered

Reference: patent publication US20220142959A1, “LEUCINE, ACETYL LEUCINE, AND RELATED ANALOGS FOR TREATING DISEASE” (priority 2019, published 2022)
